# Patent US10869931B2, “Polyethylene glycol-modified angiogenesis inhibitor HM-1 and application thereof” (NANJING ANJI BIOLOGICAL TECHNOLOGY CO.,LTD, priority 2016, dated 2020)
# Values joined by “and” are separate entries in the source; they are usually repeats but may differ in a detail not shown here. Identical values can stand only once. Marks after values point to notes of the source that are not given here. Where no end group is shown, it is not given here.
# Tests used:
# [1] = system: corneal neovascularization in BALB/c mice; assay: Alkali-burn corneal neovascularization in BALB/c mice (CD31 microvessel density); format: in vivo, mouse; conditions: for Inhibition rate: corneal microvessel density vs control; for Inhibition rate / MVD: day 14 after alkali burn, intravitreal once a day for 1 week; for MVD: microvessel density (CD31) of cornea
# Description: (1) Preparation of corneal neovascularization model induced by alkali burn in BALB/c mice: mice were randomly grouped and labeled as mPEG-HM-1 experimental group and control group, 5 […] in each group, respectively, was given mPEG-HM-1 and saline by Intravitreal injection after alkali burn, once a day for 1 week. The inflammatory reaction and neovascularization of the cornea were observed under slit lamp microscope at 1 d, 7 d, and 14 d after alkali burn. On the 14th day after alkali burn, the corneal neovascularization was recorded under the slit lamp microscope in the anterior segment of the eye. All the mice were euthanized by cervical dislocation and the eyeballs were removed, washed with saline to rid of blood, and was fixed in 4% paraformaldehyde for 1.5 h, dehydrated in PBS containing 30% sucrose overnight, embedded in OCT frozen section embedding agent, stored in −80° C. refrigerator, frozen section 8 μm, and underwent immunocytochemical detection of CD31 expression. (2) Quantitative measurement of corneal tissue microvessel density: Microvessel density (MVD) is an indicator for evaluating angiogenesis. Vascular endothelial cells were labeled with anti-CD31 antibody by immunohistochemistry, and the number of microvessels per unit area was counted to measure the degree of neovascularization. Standards for counting microvessels: Microscopically, the endothelial cells or cell clusters that are clearly demarcated from adjacent tissues in the corneal tissue and stained brown or brown are counted in the neovascularization. The number of new blood vessels in the whole section was counted under a 10×20 microscope. After the corneal tissue was photographed, the entire corneal tissue area was calculated by image processing software Image J, and the neovascular density of the whole section was determined. The test was repeated 3 times independently. The results obtained by the test were expressed as mean±SD, and a statistical T test was performed. *P<0.05 was a significant difference, and **P<0.01 was a very significant difference.
# [2] = system: xylene-induced ear swelling in Kunming mice; assay: Xylene-induced ear swelling in mice; format: in vivo, mouse; conditions: for Inhibition rate: ear swelling vs control
# Description: Kunming mice were used. The saline group was used as the blank control group, the aspirin group (200 mg/kg) as the positive control group, and the mPEG-HM-1 administration group as the experimental group. Mice were administered once daily for 5 consecutive days. The blank control group was given an equal volume of physiological saline. One hour after the last administration, 0.05 mL of xylene was applied to both sides of the right ear of the mice to cause inflammation, and the left ear was not coated as normal ears. After 2 h, the mice were sacrificed by dislocation, and the ears were cut along the auricle. Ear pieces were taken with a puncher, weighed, and the swelling degree and swelling rate were calculated. Swelling degree=right ear piece weight-left ear piece weight, swelling rate=(swelling degree/left ear piece weight)×100%. Statistical t-test was performed on the test results, *P<0.05 was a significant difference, and **P<0.01 was a very significant difference. See Table 31 to Table 34 for the results.
# [3] = system: human retinal vascular endothelial cells (HRCEC); assay: MTT proliferation of human retinal vascular endothelial cells; format: cell-based; conditions: 48 h; for Inhibition rate: HRCEC proliferation; for A570 nm-A630 nm: HRCEC; for A570 nm-A630 nm / inhibition rate of HRCEC proliferation: MTT
# Description: The activity of the angiogenesis inhibitor polypeptide to inhibit proliferation of human retinal vascular endothelial cells was examined by MTT assay. HRCEC cells were cultured in a 37° C., 5% CO2 incubator to a density of 90% or more, and collected by trypsinization. The cells were resuspended in the culture medium and counted under a microscope to adjust the cell concentration to 3.0×10^4 cells/mL. The cell suspension was inoculated into a 96-well plate at 100 μL per well and cultured overnight at 37° C. in a 5% CO2 incubator. After the cells were completely adhered, the angiogenesis inhibitor polypeptide was added as the administration group, and Avastin was used as the positive control group, and the culture media without any drug was used as a blank control group, and the culture media were diluted to each predetermined concentration. Each dilution was separately added to a 96-well plate at 100 μL per well and incubated for 48 h at 37° C. in a 5% CO2 incubator. 20 μL of 5 mg/mL MTT was added to each well of a 96-well plate and incubation was continued for 4 h. The medium was aspirated and dissolved in 100 μL of DMSO per well. […] The formula is as follows: PI (%)=1−administration group/negative group
# The test was repeated 3 times independently. The results obtained by the test were expressed as mean±SD, and a statistical T test was performed. *P<0.05 was a significant difference, and **P<0.01 was a very significant difference.
# [4] = system: collagen induced arthritis (CIA) in DBA/1 mice; assay: Collagen-induced mouse arthritis (CIA) model; format: in vivo; conditions: for Joint swelling / Left and right paw swelling / Clinical score: CIA DBA/1 mice; for Clinical score: maximum score 16
# Brain tumor cells = assay: MTT proliferation inhibition, brain tumor cells; format: cell-based, human; set-up: concentration or dose not given beside the values; conditions: 48 h
# Description: The activity of mPEG-HM-1 to inhibit the growth of various tumor cells was examined by MTT assay. The tumor cells were cultured to a concentration of 90% or more in a 37° C., 5% CO2 incubator and collected by trypsinization. The cells were resuspended in the culture medium and counted under a microscope to adjust the cell concentration to 2×10^4 cells/mL, the cell suspension was inoculated into a 96-well plate at 100 μL/well and incubated overnight at 37° C. in a 5% CO2 incubator. mPEG-HM-1 was diluted with the culture solution to each predetermined concentration. Docetaxel is diluted to the final concentration with the culture medium. After the cells were fully attached, each dilution was added to a 96-well plate (100 μL/well). The mPEG-HM-1 dilution was added as a drug-administered group, and docetaxel was added as a positive control group, and a culture solution without any drug was used as a negative control group. Incubate for 48 h at 37° C. in a 5% CO2 incubator. 5 mg/mL of MTT was added to a 96-well plate at 20 μL per well, and incubation was continued for 4 hours. The medium was aspirated, dissolved in 150 μL of DMSO per well, and gently mixed by shaking for 10 min. The absorbance was measured at a measurement wavelength of 570 nm and a reference wavelength of 630 nm using a microplate reader, and the rate of growth inhibition (proliferation inhibition, PI) was calculated. The formula is as follows: PI (%)=1−administration group/negative group
# The test was repeated 3 times independently, and the results obtained by the test were expressed as mean±SD, and the test results are shown in Table 15 to Table 18.
# [5] = 10 mg/kg once daily for 5 days, 2 h after xylene
# [6] = 20 mg/kg once daily for 5 days, 2 h after xylene
# [7] = 40 mg/kg once daily for 5 days, 2 h after xylene
# [8] = 20 mg/kg subcutaneous from day 30 of modeling
# [9] = 80 mg/kg once daily for 5 days, 2 h after xylene
# [10] = 40 mg/kg subcutaneous from day 30 of modeling
# [11] = 80 mg/kg subcutaneous from day 30 of modeling
# [12] = 10 mg/kg subcutaneous from day 30 of modeling
Substance,Inhibition rate [1],MVD [1],"Swelling [2, 5]",Inhibition rate ([2]; 10 mg/kg once daily for 5 days),"Swelling [2, 6]",Inhibition rate ([2]; 20 mg/kg once daily for 5 days),"Swelling [2, 7]",Inhibition rate ([2]; 40 mg/kg once daily for 5 days),Inhibition rate ([3]; 40 μg/mL),A570 nm-A630 nm ([3]; 40 μg/mL),Inhibition rate ([3]; 60 μg/mL),A570 nm-A630 nm ([3]; 60 μg/mL),Inhibition rate ([3]; 80 μg/mL),A570 nm-A630 nm ([3]; 80 μg/mL),rate of growth inhibition (Brain tumor cells),"Swelling [2, 9]",Inhibition rate ([2]; 80 mg/kg once daily for 5 days),Inhibition rate ([3]; 100 μg/mL),A570 nm-A630 nm ([3]; 100 μg/mL),further results
mPEG-ALD10k-Arg-Gly-Ala-Asp-Arg-Ala-Gly-Gly-Gly-Gly-Arg-Gly-Asp ({mPEG‑ALD 10 kDa}-RGADRAGGGGRGD) [mPEG-ALD10k-HM-1],53.83%,30.81 ± 5.465**,5.36 ± 0.12 mg,12.36%,4.67 ± 0.79* mg,23.67%,3.58 ± 0.33** mg,41.58%,48.34%*,0.6771 ± 0.07904,58.62%**,0.5424 ± 0.07508,73.89%*,0.3422 ± 0.07412,58.25 ± 14.02%,–,–,–,–,"inhibition rate of corneal neovascularization ([1]; BALB/c mice, alkali burn, intravitreal injection once a day for 1 week): 53.83%; inhibition rate of HRCEC proliferation ([3]; 80 μg/mL): 73.89%; Joint swelling [4, 8]: 0.73 ± 0.15 mm; Left and right paw swelling [4, 8]: 0.70 ± 0.14 mm; Clinical score [4, 8]: 8.65 ± 1.33; limbs score (in words) ([4]; CIA mice, subcutaneous, once every three days, vs model control group): significantly lower than that of the model control group"
mPEG-ALD20k-Arg-Gly-Ala-Asp-Arg-Ala-Gly-Gly-Gly-Gly-Arg-Gly-Asp ({mPEG‑ALD 20 kDa}-RGADRAGGGGRGD) [mPEG-ALD20k-HM-1],48.04%,34.67 ± 6.953**,–,–,4.89 ± 0.20 mg,20.10%,4.52 ± 0.32* mg,26.19%,–,–,46.21%*,0.7050 ± 0.07965,55.90%**,0.5780 ± 0.06987,56.89 ± 15.41%,3.70 ± 0.20** mg,39.47%,68.15%*,0.4175 ± 0.07301,"inhibition rate of ear swelling ([2]; 80 mg/kg, once daily for 5 days, mice): 37.76%; inhibition rate of HRCEC proliferation ([3]; 100 μg/mL): 68.15% and 69.12%; Joint swelling [4, 10]: 0.72 ± 0.16 mm; Left and right paw swelling [4, 10]: 0.74 ± 0.13 mm; Clinical score [4, 10]: 8.66 ± 1.38"
mPEG-ALD40k-Arg-Gly-Ala-Asp-Arg-Ala-Gly-Gly-Gly-Gly-Arg-Gly-Asp ({mPEG‑ALD 40 kDa}-RGADRAGGGGRGD) [mPEG-ALD40k-HM-1],46.11%,35.96 ± 6.862**,–,–,–,–,5.41 ± 0.16 mg,11.53%,–,–,–,–,43.11%*,0.7457 ± 0.07094,50.69 ± 14.41%,4.77 ± 0.62* mg,22.02%,54.23%**,0.5999 ± 0.07138,"Swelling ([2]; 160 mg/kg once daily for 5 days, 2 h after xylene): 4.16 ± 0.25** mg; Inhibition rate ([2]; 160 mg/kg once daily for 5 days): 32.09%; Inhibition rate ([3]; 120 μg/mL): 62.08%*; A570 nm-A630 nm ([3]; 120 μg/mL): 0.4970 ± 0.07653; Joint swelling [4, 11]: 0.77 ± 0.14 mm; Left and right paw swelling [4, 11]: 0.79 ± 0.12 mm; Clinical score [4, 11]: 8.97 ± 1.42"
mPEG-SC5k-Arg-Gly-Ala-Asp-Arg-Ala-Gly-Gly-Gly-Gly-Arg-Gly-Asp ({mPEG‑SC 5 kDa}-RGADRAGGGGRGD) [mPEG-SC5k-HM-1],40.52%,39.69 ± 3.527*,4.90 ± 0.35* mg,20.13%,4.17 ± 0.19** mg,32.10%,–,–,51.76%**,0.6323 ± 0.08797,62.10%*,0.4968 ± 0.08679,–,–,42.18 ± 12.29%,–,–,–,–,"Inhibition rate ([2]; 5 mg/kg once daily for 5 days): 9.57%; Swelling ([2]; 5 mg/kg once daily for 5 days, right minus left ear piece weight 2 h after xylene): 5.55 ± 0.21 mg; Inhibition rate ([3]; 20 μg/mL): 42.22%*; A570 nm-A630 nm ([3]; 20 μg/mL): 0.7573 ± 0.09088; Joint swelling [4, 12]: 0.81 ± 0.12 mm; Left and right paw swelling [4, 12]: 0.79 ± 0.11 mm; Clinical score [4, 12]: 9.10 ± 1.27"
